The conditions of data set [1]: detergent micelle; cited from earlier work.
The subject of data set [2] is E. coli DH5α expressing homoprotocatechuate 2,3-dioxygenase (2,3-HPCD). It is filed as cell-based. To be noted: 1% w/v for 20 minutes. The procedure: A 200 μL aliquot of 500 μM DHPAC in 50 mM PB at pH 7.5 was added to each well and A380 was measured for up to one hour. The data was then fit to a first order reaction model of the form:
Cp(t)=Cs,0(1−e^−k^r^t) (4)
Cp is the product concentration, Cs,0 is the initial substrate concentration, and kr is the first order reaction rate constant.

The nature of data set [3]: Detergent and micelle properties. It is filed as physicochemical. To be noted: for Est. Micelle MW: estimated micelle molecular weight.

The text below walks through data of patent publication US20200370033A1, “BIOLOGICAL ASSEMBLY INCLUDING BIOLOGICAL COMPONENT AND SHIELD” (Regents of the University of Minnesota, priority 2018, published 2020).

As to “polyethylene glycol p-(1,1,3,3-tetramethylbutyl)-phenyl ether [Triton X-100]”, in data set [1], the “Aggregation Number” value was 140. Further, the “change in biocatalytic activity after detergent/surfactant treatment” value in data set [2] is listed as “modest”. Besides, in data set [3], the micelle hydrodynamic radii was around 4 nm and the “Est. Micelle MW” value was 228 kDa.

For the substance polysorbate 85 [Tween 85], the “Aggregation Number” value in data set [1] is 60. Moreover, the “change in biocatalytic activity after detergent/surfactant treatment” value in data set [2] was “modest”. Besides, the “Est. Micelle MW” value in data set [3] was 110 kDa.
